Experimental data as given in publication PMC11783400, “Assessment of Potential Drug–Drug Interactions for Novel Oral Melanocortin‐1 Receptor Agonist Dersimelagon” (Pharmacology Research & Perspectives, 2025).

Experiments:
CYP2D6 = target: T1, CYP2D6 (Homo sapiens, UniProt P10635); assay: CYP activity inhibition in human liver microsomes; format: biochemical; conditions: read-out: IC50 (μM) / Direct inhibition
T1 construct: native enzyme in human liver microsomes
Excerpt: CYP activity inhibition in human liver microsomes on CYP2D6

CYP3A4 (Table 1); CYP3A = target: T2, CYP3A4 (Table 1); CYP3A (Homo sapiens, UniProt P08684); assay: CYP activity inhibition in human liver microsomes; format: biochemical; conditions: read-out: IC50 (μM) / Direct inhibition
T2 construct: native enzyme in human liver microsomes
T2 sequence (P08684 2-503): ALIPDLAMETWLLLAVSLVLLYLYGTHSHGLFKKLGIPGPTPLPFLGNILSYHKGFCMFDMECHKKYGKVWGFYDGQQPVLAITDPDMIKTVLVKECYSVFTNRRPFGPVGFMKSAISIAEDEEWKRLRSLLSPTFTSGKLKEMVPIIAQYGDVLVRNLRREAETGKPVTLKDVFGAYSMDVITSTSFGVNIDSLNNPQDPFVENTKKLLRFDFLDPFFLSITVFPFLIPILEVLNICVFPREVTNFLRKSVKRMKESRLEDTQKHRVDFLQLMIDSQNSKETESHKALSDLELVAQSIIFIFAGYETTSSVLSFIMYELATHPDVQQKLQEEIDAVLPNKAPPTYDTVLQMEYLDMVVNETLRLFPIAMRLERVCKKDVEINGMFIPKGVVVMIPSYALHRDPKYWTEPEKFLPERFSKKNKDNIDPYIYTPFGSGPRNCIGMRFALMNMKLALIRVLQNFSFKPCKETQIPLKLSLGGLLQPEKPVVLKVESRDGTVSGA
Excerpt: CYP activity inhibition in human liver microsomes on CYP3A4 (Table 1); CYP3A (text)

[1] = target: T3, BCRP (breast cancer resistance protein) (Homo sapiens, UniProt Q9UNQ0); assay: transport inhibition in Caco-2 monolayers; format: cell-based
T3 construct: gene ABCG2; endogenous transporter in Caco-2 cell monolayers
T3 sequence (Q9UNQ0 1-655): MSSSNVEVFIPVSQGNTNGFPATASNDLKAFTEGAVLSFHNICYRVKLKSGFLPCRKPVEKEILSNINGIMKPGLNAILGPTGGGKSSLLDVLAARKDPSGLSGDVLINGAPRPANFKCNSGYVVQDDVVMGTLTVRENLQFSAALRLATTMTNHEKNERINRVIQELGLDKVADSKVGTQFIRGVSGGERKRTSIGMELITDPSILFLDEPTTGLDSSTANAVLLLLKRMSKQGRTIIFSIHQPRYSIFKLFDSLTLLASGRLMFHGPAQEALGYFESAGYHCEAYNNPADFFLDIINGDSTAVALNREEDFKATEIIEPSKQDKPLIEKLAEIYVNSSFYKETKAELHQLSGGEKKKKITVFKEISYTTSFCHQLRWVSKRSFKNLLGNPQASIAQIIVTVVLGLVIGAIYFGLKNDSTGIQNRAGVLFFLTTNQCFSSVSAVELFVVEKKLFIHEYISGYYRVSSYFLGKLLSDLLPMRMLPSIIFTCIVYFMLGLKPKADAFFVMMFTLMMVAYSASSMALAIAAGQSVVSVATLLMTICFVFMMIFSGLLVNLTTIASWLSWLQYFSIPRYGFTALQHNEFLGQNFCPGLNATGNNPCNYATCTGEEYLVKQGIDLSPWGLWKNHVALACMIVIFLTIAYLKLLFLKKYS
Excerpt: transport inhibition in Caco-2 monolayers on BCRP (breast cancer resistance protein)

UGT1A1 = target: T4, UGT1A1 (Homo sapiens, UniProt P22309); assay: glucuronidation inhibition in human liver microsomes; format: biochemical; conditions: substrate beta-estradiol, competitive
T4 construct: native enzyme in human liver microsomes
T4 sequence (P22309 26-533): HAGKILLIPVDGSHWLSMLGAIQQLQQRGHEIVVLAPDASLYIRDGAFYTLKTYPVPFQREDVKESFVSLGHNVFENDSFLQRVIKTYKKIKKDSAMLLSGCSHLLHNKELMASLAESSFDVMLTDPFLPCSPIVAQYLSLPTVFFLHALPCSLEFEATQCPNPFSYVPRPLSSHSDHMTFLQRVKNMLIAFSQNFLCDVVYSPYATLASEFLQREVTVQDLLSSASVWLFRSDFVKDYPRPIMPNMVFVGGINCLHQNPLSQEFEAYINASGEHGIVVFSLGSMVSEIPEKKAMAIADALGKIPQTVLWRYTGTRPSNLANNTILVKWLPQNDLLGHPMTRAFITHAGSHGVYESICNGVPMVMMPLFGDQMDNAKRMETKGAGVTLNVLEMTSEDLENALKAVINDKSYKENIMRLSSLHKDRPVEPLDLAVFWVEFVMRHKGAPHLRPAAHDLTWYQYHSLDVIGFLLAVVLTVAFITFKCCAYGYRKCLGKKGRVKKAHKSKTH
Excerpt: glucuronidation inhibition in human liver microsomes on UGT1A1

CYP2C9 = target: T5, CYP2C9 (Homo sapiens, UniProt P11712); assay: CYP activity inhibition in human liver microsomes; format: biochemical
T5 construct: native enzyme in human liver microsomes
T5 sequence (P11712 whole entry): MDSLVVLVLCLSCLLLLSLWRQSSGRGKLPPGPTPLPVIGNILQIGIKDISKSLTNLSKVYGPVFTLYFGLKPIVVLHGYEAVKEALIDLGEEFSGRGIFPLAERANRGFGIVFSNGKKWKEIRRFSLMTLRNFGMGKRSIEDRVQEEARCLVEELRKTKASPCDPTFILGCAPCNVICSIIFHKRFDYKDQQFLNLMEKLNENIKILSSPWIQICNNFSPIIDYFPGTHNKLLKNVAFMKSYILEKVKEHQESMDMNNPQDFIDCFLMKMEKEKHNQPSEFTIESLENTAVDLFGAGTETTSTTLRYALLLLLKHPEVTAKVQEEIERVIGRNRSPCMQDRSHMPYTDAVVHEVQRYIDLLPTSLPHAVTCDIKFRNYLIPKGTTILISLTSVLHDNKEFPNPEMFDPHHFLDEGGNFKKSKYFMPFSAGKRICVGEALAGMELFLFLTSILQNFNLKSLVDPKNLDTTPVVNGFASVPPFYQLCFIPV
Excerpt: CYP activity inhibition in human liver microsomes on CYP2C9

OCT2 = target: T6, OCT2 (Homo sapiens, UniProt O15244); assay: uptake inhibition in HEK293 cells expressing the transporter; format: cell-based
T6 construct: gene SLC22A2; expressed in HEK293 cells
T6 sequence (O15244 1-555): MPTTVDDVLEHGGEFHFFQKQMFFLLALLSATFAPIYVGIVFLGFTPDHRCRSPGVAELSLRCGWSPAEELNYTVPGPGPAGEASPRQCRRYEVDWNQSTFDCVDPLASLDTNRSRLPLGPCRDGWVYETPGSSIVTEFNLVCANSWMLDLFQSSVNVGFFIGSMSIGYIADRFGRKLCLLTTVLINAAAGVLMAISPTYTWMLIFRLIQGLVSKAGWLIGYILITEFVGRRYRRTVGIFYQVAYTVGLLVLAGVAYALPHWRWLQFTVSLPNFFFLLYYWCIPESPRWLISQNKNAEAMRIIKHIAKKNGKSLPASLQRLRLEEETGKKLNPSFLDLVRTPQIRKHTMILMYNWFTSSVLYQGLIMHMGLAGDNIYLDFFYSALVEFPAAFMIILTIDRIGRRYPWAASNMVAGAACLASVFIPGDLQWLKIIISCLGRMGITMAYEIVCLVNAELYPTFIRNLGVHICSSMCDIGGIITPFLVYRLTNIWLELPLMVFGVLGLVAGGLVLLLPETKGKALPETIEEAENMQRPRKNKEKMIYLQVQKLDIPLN
Excerpt: uptake inhibition in HEK293 cells expressing the transporter on OCT2

CYP2C19 = target: T7, CYP2C19 (Homo sapiens, UniProt P33261); assay: CYP activity inhibition in human liver microsomes; format: biochemical; conditions: read-out: IC50 (μM) / Direct inhibition
T7 construct: native enzyme in human liver microsomes
T7 sequence (P33261 whole entry): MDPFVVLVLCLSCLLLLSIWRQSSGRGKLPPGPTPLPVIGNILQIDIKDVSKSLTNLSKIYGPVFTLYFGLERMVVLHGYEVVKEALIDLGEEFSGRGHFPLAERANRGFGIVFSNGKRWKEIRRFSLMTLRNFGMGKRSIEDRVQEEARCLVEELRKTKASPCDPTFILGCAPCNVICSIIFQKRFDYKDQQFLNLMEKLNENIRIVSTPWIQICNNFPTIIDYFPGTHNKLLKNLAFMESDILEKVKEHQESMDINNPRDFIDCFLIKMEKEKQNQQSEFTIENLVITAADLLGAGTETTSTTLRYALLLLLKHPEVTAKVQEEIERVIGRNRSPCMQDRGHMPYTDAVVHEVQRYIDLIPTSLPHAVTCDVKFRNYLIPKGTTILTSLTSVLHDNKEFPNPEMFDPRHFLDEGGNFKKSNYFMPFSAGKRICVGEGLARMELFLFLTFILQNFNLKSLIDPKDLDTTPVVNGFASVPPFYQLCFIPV
Excerpt: CYP activity inhibition in human liver microsomes on CYP2C19

T1 sequence (P10635 whole entry): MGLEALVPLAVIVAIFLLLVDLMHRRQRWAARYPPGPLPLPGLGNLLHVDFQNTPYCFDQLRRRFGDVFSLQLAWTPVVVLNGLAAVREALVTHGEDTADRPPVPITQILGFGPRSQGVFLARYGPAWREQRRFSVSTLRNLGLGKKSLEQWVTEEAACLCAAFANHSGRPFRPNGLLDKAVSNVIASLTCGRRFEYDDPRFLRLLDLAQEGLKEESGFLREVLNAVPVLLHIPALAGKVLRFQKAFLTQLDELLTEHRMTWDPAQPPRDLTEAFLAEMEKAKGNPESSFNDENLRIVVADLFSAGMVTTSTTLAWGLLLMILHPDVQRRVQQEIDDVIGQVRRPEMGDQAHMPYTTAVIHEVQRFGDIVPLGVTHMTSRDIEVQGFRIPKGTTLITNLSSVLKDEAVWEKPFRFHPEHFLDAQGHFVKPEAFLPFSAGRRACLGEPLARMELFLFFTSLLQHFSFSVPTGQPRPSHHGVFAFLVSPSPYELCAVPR

IC50 (CYP2D6): > 100 µM
IC50 (CYP3A4 (Table 1); CYP3A): 74.6 µM
IC50 [1]: 0.467 µM
Ki (UGT1A1; read-out: Parameters / K i): 1.19 µM
IC50 (UGT1A1; direct inhibition): 1.45 µM
IC50 (CYP2C9; read-out: IC50 (μM) / Direct inhibition): 9.16 µM
Ki (CYP2C9; read-out: Parameters / K i): 5.13 µM
IC50 (OCT2): > 28.7 µM
IC50 (CYP2C19): 23.4 µM
SMILES: COC[C@H]1CN(C(=O)[C@]2(F)CN(C3CCCC3)C[C@H]2c2ccc(OC)cc2)C[C@@H]1c1ccc(C(F)(F)F)cc1N1CCC(C(=O)O)CC1 [dersimelagon]
